Here are results for 5 molecules from patent US20230364104A1, “PHARMACEUTICAL COMBINATION FOR THE TREATMENT OF HUMAN HYPOCHOLINERGIC DISORDERS” (priority 2020, published 2023).

SMILES strings stand for the structures. Read-outs that look alike come from different tables or passages of the source.

One series deals with myocardial tissue. To be noted: acetylcholine 1 μM, cited from earlier work.
For series [1] the following is noted: oral pirenzepine 100-300 mg co-administered with donepezil, healthy volunteers.
For series [2] the following is noted: in vivo; cited from earlier work.

As for `C[N+]1(C)CCC(OC(=O)C(c2ccccc2)c2ccccc2)CC1.[I-]` [4DAMP, 4-[(Diphenylacetyl)oxy]-1,1-dimethylpiperidin-1-ium iodide], the “suppression of the effect of acetylcholine” value (from here on “suppression”) with myocardial tissue (antagonist 0.1 μM) is on record as “did not suppress the effect of acetylcholine”.

`CCN(CC)CCCCC1CCN(CC(=O)N2c3ccccc3C(=O)Nc3cccnc32)CC1` [AQ-RA 741, 11-[[4-[4-(diethylamino)butyl]-1-piperidinyl]acetyl]-5,11-dihydro-6H-pyrido[2,3-b] [1,4]benzodiazepin-6-one]: in the series with myocardial tissue (antagonist 1 μM), the “suppression” value is listed as “partial suppression of the effect of acetylcholine”. `CN1[C@@H]2CC[C@H]1C[C@@H](OC(=O)C(CO)c1ccccc1)C2` (stereo partly drawn) [atropine]: the “suppression” value in the series with myocardial tissue (antagonist 1 μM) is recorded as “completely abolished the effect of acetylcholine”. For the molecule `CN1CCN(CC(=O)N2c3ccccc3C(=O)Nc3cccnc32)CC1` [pirenzepine, 11-[(4-methylpiperazin-1-yl)acetyl]-5,11-dihydro-6H-pyrido[2,3-b][1,4]benzodiazepin-6-one], the “increase in the tolerated dose of donepezil” value in series [1] was “enabling the safe increase in the dose of donepezil”. The “suppression” value with myocardial tissue (antagonist 1 μM) is given as “did not suppress the effect of acetylcholine”. For `O=C(O[C@H]1CN2CCC1CC2)N1CCc2ccccc2[C@@H]1c1ccccc1` [solifenacin], the “effect on QTc” value in series [2] is on record as “increase in QTc”.
